± gives the expanded uncertainty stated by the source.
Columns and labels:
[1] = refractive index (Na D-line) (dimensionless); xn = mol fraction of the nth substance listed; conditions: 101 kPa, Liquid
[2] = xn = mol fraction of the nth substance listed; conditions: 101 kPa, Liquid; for speed of sound: Pulse-echo method

CCCCCCC(C)O (stereo unspecified) [2-octanol] + Clc1cccc(Cl)c1
Conditions | mass density, [2] [kg/m3] | refractive index, [1] | speed of sound, [2] [m/s] | viscosity, [2] [mPa·s]
298.15 K, x2 = 0 | – | – | – | 6.566 ± 0.4
298.15 K, x2 = 0.0694 | 840.61 ± 0.53 | 1.4312 ± 0.0012 | 1300.1 ± 1.3 | 5.146 ± 0.33
298.15 K, x2 = 0.1166 | 857.54 ± 0.5 | 1.4366 ± 0.0012 | 1295.8 ± 1.3 | 4.43 ± 0.29
298.15 K, x2 = 0.1823 | 881.65 ± 0.45 | 1.4436 ± 0.0012 | 1290 ± 1.3 | 3.7 ± 0.24
298.15 K, x2 = 0.2395 | 903.41 ± 0.41 | 1.4494 ± 0.0012 | 1285.1 ± 1.3 | 3.231 ± 0.22
298.15 K, x2 = 0.3143 | 932.89 ± 0.36 | 1.4567 ± 0.0012 | 1278.7 ± 1.3 | 2.754 ± 0.19
298.15 K, x2 = 0.379 | 959.33 ± 0.31 | 1.4631 ± 0.0012 | 1273.3 ± 1.3 | 2.429 ± 0.17
298.15 K, x2 = 0.4488 | 988.41 ± 0.26 | 1.4698 ± 0.0012 | 1268 ± 1.3 | 2.138 ± 0.15
298.15 K, x2 = 0.5084 | 1014.16 ± 0.27 | 1.4758 ± 0.0012 | 1263.7 ± 1.3 | 1.934 ± 0.13
298.15 K, x2 = 0.582 | 1047.42 ± 0.34 | 1.4838 ± 0.0012 | 1258.9 ± 1.3 | 1.715 ± 0.12
298.15 K, x2 = 0.6659 | 1086.85 ± 0.42 | 1.4939 ± 0.0012 | 1254.6 ± 1.3 | 1.505 ± 0.11
298.15 K, x2 = 0.7208 | 1114.21 ± 0.48 | 1.5009 ± 0.0012 | 1252.4 ± 1.3 | 1.394 ± 0.099
298.15 K, x2 = 0.7847 | 1147.67 ± 0.55 | 1.5099 ± 0.0012 | 1250.7 ± 1.3 | 1.279 ± 0.092
298.15 K, x2 = 0.8663 | 1194.04 ± 0.65 | 1.5224 ± 0.0012 | 1250.4 ± 1.3 | 1.151 ± 0.084
298.15 K, x2 = 0.9434 | 1243.52 ± 0.76 | 1.5349 ± 0.0012 | 1251.8 ± 1.3 | 1.065 ± 0.078
303.15 K, x2 = 0 | – | – | – | 5.178 ± 0.33
303.15 K, x2 = 0.0694 | 836.24 ± 0.54 | 1.4293 ± 0.0012 | 1282.4 ± 1.3 | 4.351 ± 0.29
303.15 K, x2 = 0.1166 | 852.87 ± 0.51 | 1.4348 ± 0.0012 | 1278.1 ± 1.3 | 3.821 ± 0.25
303.15 K, x2 = 0.1823 | 876.71 ± 0.46 | 1.4418 ± 0.0012 | 1272.3 ± 1.3 | 3.246 ± 0.22
303.15 K, x2 = 0.2395 | 898.21 ± 0.42 | 1.4475 ± 0.0012 | 1267.5 ± 1.3 | 2.847 ± 0.19
303.15 K, x2 = 0.3143 | 927.45 ± 0.37 | 1.4546 ± 0.0012 | 1261.2 ± 1.3 | 2.412 ± 0.16
303.15 K, x2 = 0.379 | 953.45 ± 0.32 | 1.4608 ± 0.0012 | 1256.1 ± 1.3 | 2.113 ± 0.14
303.15 K, x2 = 0.4488 | 982.39 ± 0.27 | 1.4677 ± 0.0012 | 1251 ± 1.3 | 1.857 ± 0.13
303.15 K, x2 = 0.5084 | 1007.74 ± 0.26 | 1.4738 ± 0.0012 | 1246.9 ± 1.3 | 1.679 ± 0.12
303.15 K, x2 = 0.582 | 1040.69 ± 0.33 | 1.4819 ± 0.0012 | 1242.3 ± 1.3 | 1.51 ± 0.11
303.15 K, x2 = 0.6659 | 1079.96 ± 0.41 | 1.4921 ± 0.0012 | 1238.3 ± 1.3 | 1.378 ± 0.098
303.15 K, x2 = 0.7208 | 1107.42 ± 0.47 | 1.4994 ± 0.0012 | 1236.2 ± 1.3 | 1.302 ± 0.093
303.15 K, x2 = 0.7847 | 1141.2 ± 0.54 | 1.5084 ± 0.0012 | 1234.6 ± 1.3 | 1.226 ± 0.089
303.15 K, x2 = 0.8663 | 1187.75 ± 0.64 | 1.5209 ± 0.0012 | 1234.2 ± 1.3 | 1.14 ± 0.083
303.15 K, x2 = 0.9434 | 1236.9 ± 0.75 | 1.5327 ± 0.0012 | 1235.6 ± 1.3 | 1.042 ± 0.077
308.15 K, x2 = 0 | – | – | – | 4.162 ± 0.27
308.15 K, x2 = 0.0694 | 832.14 ± 0.55 | 1.4273 ± 0.0012 | 1264.6 ± 1.3 | 3.517 ± 0.23
308.15 K, x2 = 0.1166 | 848.59 ± 0.52 | 1.4327 ± 0.0012 | 1260.1 ± 1.3 | 3.17 ± 0.21
308.15 K, x2 = 0.1823 | 871.91 ± 0.47 | 1.4397 ± 0.0012 | 1254.2 ± 1.3 | 2.759 ± 0.19
308.15 K, x2 = 0.2395 | 892.9 ± 0.43 | 1.4455 ± 0.0012 | 1249.6 ± 1.3 | 2.463 ± 0.17
308.15 K, x2 = 0.3143 | 920.82 ± 0.38 | 1.4527 ± 0.0012 | 1243.5 ± 1.3 | 2.119 ± 0.15
308.15 K, x2 = 0.379 | 945.97 ± 0.34 | 1.4589 ± 0.0012 | 1238.9 ± 1.3 | 1.892 ± 0.13
308.15 K, x2 = 0.4488 | 974.25 ± 0.29 | 1.4658 ± 0.0012 | 1233.9 ± 1.3 | 1.673 ± 0.12
308.15 K, x2 = 0.5084 | 999.57 ± 0.24 | 1.4718 ± 0.0012 | 1230.2 ± 1.3 | 1.512 ± 0.11
308.15 K, x2 = 0.582 | 1032.22 ± 0.31 | 1.4798 ± 0.0012 | 1226 ± 1.3 | 1.358 ± 0.097
308.15 K, x2 = 0.6659 | 1071.96 ± 0.39 | 1.4898 ± 0.0012 | 1221.9 ± 1.3 | 1.207 ± 0.087
308.15 K, x2 = 0.7208 | 1099.76 ± 0.45 | 1.4969 ± 0.0012 | 1219.4 ± 1.3 | 1.132 ± 0.083
308.15 K, x2 = 0.7847 | 1134.17 ± 0.53 | 1.5057 ± 0.0012 | 1217.9 ± 1.3 | 1.05 ± 0.077
308.15 K, x2 = 0.8663 | 1181.99 ± 0.63 | 1.518 ± 0.0012 | 1217.3 ± 1.3 | 0.956 ± 0.071
308.15 K, x2 = 0.9434 | 1231.4 ± 0.74 | 1.5298 ± 0.0012 | 1219.3 ± 1.3 | 0.898 ± 0.067

From the NIST ThermoML archive (doi:10.1007/s10765-011-1087-7)
